The source of these data is publication PMC4645160, “Targeting kinases with anilinopyrimidines: discovery of N-phenyl-N’-[4-(pyrimidin-4-ylamino)phenyl]urea derivatives as selective inhibitors of class III receptor tyrosine kinase subfamily” (Scientific Reports, 2015).

In one assay the test system is A549 cells. As to the kind of experiment: MTT cytotoxicity assay, A549 lung cancer cells. In kind it is cell-based, human. The following applies: for IC50: Homo sapiens, A549, 72 h, MTT test, 72 h of drug treatment, read-out: A549 IC50 (μM) ± SD. The protocol:
(§1) Compounds active against at least one kinase among EGFR and class III RTKs were evaluated for their cytotoxic properties against two different human cancer cell lines, namely non small cells A549 lung cancer cells (sensitive to EGFR inhibitors)[46] and pancreatic BxPC3 adenocarcinoma (sensitive to both PDGFRβ and EGFR inhibitors)[47][48] cells. […] The results, expressed as IC50 values (μM) calculated from the dose-survival curves obtained after 72 h of drug treatment from the MTT test, are reported in Table 1.
(§2) All compounds, except derivative 27, were dissolved in DMSO just before the experiment, and a calculated amount of drug solution was added to the cell growth medium to a final solvent concentration of 0.5%, which had no discernible effect on cell killing. Compound 27 was dissolved in a 0.9% NaCl solution just before the experiment.
(§3) Human lung (A549), breast (MCF-7), pancreas (BxPC3), and colon (LoVo) carcinoma cell lines along with melanoma (A375) were obtained from American Type Culture Collection (ATCC, Rockville, MD). Human non-tumor embryonic kidney HEK293 cells were obtained from European Collection of Cell Cultures (ECACC, Salisbury, UK). Human cervical carcinoma A431cells were kindly provided by Prof. F. Zunino (Division of Experimental Oncology B, Istituto Nazionale dei Tumori, Milan, Italy). Human ovarian cancer 2008 cells were kindly provided by Prof. G. Marverti (Dept. of Biomedical Science of Modena University, Italy). Cell lines were maintained in the logarithmic phase at 37 °C in a 5% carbon dioxide atmosphere using the following culture media containing 10% fetal calf serum (Euroclone, Milan, Italy), antibiotics (50 units ∙ mL^−1 penicillin and 50 μg ∙ mL^−1 streptomycin) and 2 mM l-glutamine: i) RPMI-1640 medium (Euroclone) for MCF-7, A431, BxPC3 and 2008 cells; ii) F-12 HAM’S (Sigma Chemical Co.) for A549 and LoVo cells; iii) D-MEM medium (Euroclone) for HEK293 cells.
(§4) The growth inhibitory effect towards human cell lines was evaluated by means of MTT (tetrazolium salt reduction) assay. Briefly, 3–8 ∙ 10^3 cells/well, dependent upon the growth characteristics of the cell line, were seeded in 96-well microplates in growth medium (100 μL) and then incubated at 37 °C in a 5% carbon dioxide atmosphere. After 24 h, the medium was removed and replaced with a fresh one containing the test compound at the appropriate concentration. Triplicate cultures were established for each treatment. After 72 h, each well was treated with 10 μL of a 5 mg ∙ mL-1 MTT (3-(4,5-dimethylthiazol-2-yl)-2,5-diphenyltetrazolium bromide) saline solution, and after 5 h additional incubation, 100 μL of a sodium dodecylsulfate (SDS) solution in HCl 0.01 M were added. After overnight incubation, the inhibition of cell growth induced by the tested complexes was detected by measuring the absorbance of each well at 570 nm using a Bio-Rad 680 microplate reader (Bio-Rad, Hercules, CA). Mean absorbance for each drug dose was expressed as a percentage of the control untreated well absorbance and plotted vs drug concentration.

The next assay has as its system BxPC3 cells. Description: MTT cytotoxicity assay, BxPC3 pancreatic adenocarcinoma cells. In kind it is cell-based, human. As to conditions: for IC50: Homo sapiens, BXPC-3, MTT test, 72 h of drug treatment, read-out: BxPC3 IC50 (μM) ± SD. The protocol:
as §1, §2, §3, §4

In another assay the test system is A431 cells. As to the kind of experiment: MTT cytotoxicity assay, A431 epidermoid carcinoma cells. As to conditions: Homo sapiens, A-431; MTT test, 72 h; read-out: A431 IC50 (μM) ± SD. In kind it is cell-based. The protocol:
F. Zunino (Division of Experimental Oncology B, Istituto Nazionale dei Tumori, Milan, Italy).
The growth inhibitory effect towards human cell lines was evaluated by means of MTT (tetrazolium salt reduction) assay. […] Triplicate cultures were established for each treatment.
(In general: Tetrazolium dyes change colour on reduction, which living cells bring about.)

Another assay deals with LoVo cells. Description: MTT cytotoxicity assay, LoVo colon carcinoma cells. In kind it is cell-based. As to conditions: Homo sapiens, MTT test, 72 h, read-out: LoVo IC50 (μM) ± SD. The protocol:
The cytotoxic profile of 19 and 27 was assessed on a wider panel of human tumor cell lines including also examples of breast (MCF-7), cervical (A431), colorectal (HCT-15), and ovarian (2008) cancers as well as melanoma (A375), besides lung (A549) and pancreatic (BxPC3) cancer cells. IC50 values, calculated from the dose-survival curves obtained after 72 h of drug treatment from the MTT test, are reported in Table 2. […] Both compounds were endowed with a cytotoxic potency higher than that of SU, eliciting IC50 values in the low micromolar range.
as §2
Human lung (A549), breast (MCF-7), pancreas (BxPC3), and colon (LoVo) carcinoma cell lines along with melanoma (A375) were obtained from American Type Culture Collection (ATCC, Rockville, MD). Human non-tumor embryonic kidney HEK293 cells were obtained from European Collection of Cell Cultures (ECACC, Salisbury, UK). Human cervical carcinoma A431cells were kindly provided by Prof. F. Zunino (Division of Experimental Oncology B, Istituto Nazionale dei Tumori, Milan, Italy). Human ovarian cancer 2008 cells were kindly provided by Prof. G. Marverti (Dept. of Biomedical Science of Modena University, Italy). […]
The growth inhibitory effect towards human cell lines was evaluated by means of MTT (tetrazolium salt reduction) assay. […] After overnight incubation, the inhibition of cell growth induced by the tested complexes was detected by measuring the absorbance of each well at 570 nm using a Bio-Rad 680 microplate reader (Bio-Rad, Hercules, CA). Mean absorbance for each drug dose was expressed as a percentage of the control untreated well absorbance and plotted vs drug concentration.

For another assay, the target named is T1, CSF1R (Homo sapiens, UniProt P07333).
T1 construct: purchased DiscoverX (KinomeScan service)
T1 sequence (P07333 20-972): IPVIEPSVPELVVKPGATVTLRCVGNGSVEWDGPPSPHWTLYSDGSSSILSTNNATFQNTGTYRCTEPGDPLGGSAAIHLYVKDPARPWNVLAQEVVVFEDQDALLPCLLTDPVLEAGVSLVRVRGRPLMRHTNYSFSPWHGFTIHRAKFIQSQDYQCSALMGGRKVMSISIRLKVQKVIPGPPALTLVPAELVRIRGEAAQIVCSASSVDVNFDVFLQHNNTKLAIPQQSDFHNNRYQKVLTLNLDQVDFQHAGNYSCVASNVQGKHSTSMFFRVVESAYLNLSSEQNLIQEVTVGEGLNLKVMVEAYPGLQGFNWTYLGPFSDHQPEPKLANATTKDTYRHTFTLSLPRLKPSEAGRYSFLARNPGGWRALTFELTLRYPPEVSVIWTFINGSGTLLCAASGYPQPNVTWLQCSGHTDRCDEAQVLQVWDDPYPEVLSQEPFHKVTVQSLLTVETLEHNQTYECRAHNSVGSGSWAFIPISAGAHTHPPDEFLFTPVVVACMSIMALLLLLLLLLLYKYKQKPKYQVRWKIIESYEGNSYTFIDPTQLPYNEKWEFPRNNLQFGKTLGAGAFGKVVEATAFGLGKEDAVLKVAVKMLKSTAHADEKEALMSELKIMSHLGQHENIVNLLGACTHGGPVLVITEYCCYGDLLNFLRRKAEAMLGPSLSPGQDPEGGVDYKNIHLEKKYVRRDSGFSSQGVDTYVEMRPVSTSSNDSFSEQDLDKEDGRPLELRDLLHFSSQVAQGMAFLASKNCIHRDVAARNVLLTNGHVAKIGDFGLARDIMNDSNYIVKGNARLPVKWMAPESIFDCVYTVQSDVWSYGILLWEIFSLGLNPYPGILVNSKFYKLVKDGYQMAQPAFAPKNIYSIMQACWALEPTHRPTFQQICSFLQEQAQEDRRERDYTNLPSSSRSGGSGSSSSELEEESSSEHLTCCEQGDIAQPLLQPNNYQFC
Description: KinomeScan Kd determination, CSF1R. In kind it is binding. The following applies: for KdRTK/KdKIT, CSF1R: Kd CSF1R over Kd KIT; for Kd: KinomeScan. The protocol: (§5) The compounds were evaluated using the KinomeScan™ platform (http://www.discoverx.com/services/drug-discovery-development-services/kinase-profiling/kinomescan), that measures the ability of the test compound to disrupt the complex between a high affinity ATP-mimic probe immobilized on a solid support and the kinase of interest. The KinomeScan is a very helpful technology for the fast and reliable screening of a number of compounds against a wide and customizable panel of kinases. Besides, it is not based on the use of hazardous radioactive ^32P-ATP and has a very low rate of false positive (<1%)[44]. The screening platform outputs a “Percent of Control” (POC) value, statistically correlated to the dissociation constant (Kd) value (http://www.discoverx.com/tools-resources/leadhunter-study-reports-data-analysis), for each pair of kinase/ligand. The POC is calculated as reported in equation (1): […]
(§6) The ability of compounds 19 and 27 to bind the class III RTK members was measured (Table 2; see also Figs S3 and S4 for dose/response curves).
(§7) Figure S3. Dose/response curve for compound 19 against tested kinases for Kd determination. The amount of kinase measured by qPCR (Signal; y-axis) is plotted against the corresponding compound concentration in nM in log10 scale (x-axis). Data points marked with an "x" were not used for Kd determination.
(§8) (1 picture or pasted object on this page, not shown here)
(§9) Figure S4. Dose/response curve for compound 27 against tested kinases for Kd

In the next assay the target is T2, KIT (Homo sapiens, UniProt P10721).
T2 construct: purchased DiscoverX (KinomeScan service)
T2 sequence (P10721 26-976): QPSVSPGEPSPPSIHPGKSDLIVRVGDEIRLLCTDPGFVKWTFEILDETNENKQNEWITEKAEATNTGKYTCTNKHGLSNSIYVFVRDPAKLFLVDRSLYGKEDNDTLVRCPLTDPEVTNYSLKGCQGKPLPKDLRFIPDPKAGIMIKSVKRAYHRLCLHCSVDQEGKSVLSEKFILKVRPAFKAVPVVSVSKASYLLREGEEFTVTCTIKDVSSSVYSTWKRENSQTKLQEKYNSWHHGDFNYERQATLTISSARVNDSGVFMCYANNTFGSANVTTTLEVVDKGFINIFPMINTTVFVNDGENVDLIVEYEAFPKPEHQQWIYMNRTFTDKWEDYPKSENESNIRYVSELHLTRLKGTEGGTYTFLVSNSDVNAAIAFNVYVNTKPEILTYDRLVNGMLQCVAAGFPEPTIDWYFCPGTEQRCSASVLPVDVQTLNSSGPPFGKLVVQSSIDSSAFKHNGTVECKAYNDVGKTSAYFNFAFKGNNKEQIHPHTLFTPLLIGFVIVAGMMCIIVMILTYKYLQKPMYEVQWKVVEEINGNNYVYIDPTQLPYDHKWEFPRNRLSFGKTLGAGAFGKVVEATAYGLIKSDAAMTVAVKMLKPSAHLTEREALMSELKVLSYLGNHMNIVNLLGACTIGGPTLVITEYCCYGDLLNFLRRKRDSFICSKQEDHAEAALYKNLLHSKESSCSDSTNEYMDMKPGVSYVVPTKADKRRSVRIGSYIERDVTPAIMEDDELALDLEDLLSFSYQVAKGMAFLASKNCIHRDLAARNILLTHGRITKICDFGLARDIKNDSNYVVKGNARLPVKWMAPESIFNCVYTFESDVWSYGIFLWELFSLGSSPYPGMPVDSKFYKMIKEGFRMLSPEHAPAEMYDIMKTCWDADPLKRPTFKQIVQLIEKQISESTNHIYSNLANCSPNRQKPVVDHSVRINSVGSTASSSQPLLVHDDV
As to the kind of experiment: KinomeScan Kd determination, KIT. In kind it is binding. As to conditions: for KdRTK/KdKIT, KIT: Kd KIT over Kd KIT; for Kd: KinomeScan. On the procedure: as §5, §6, §7, §8, §9

A further assay addresses T3, PDGFRβ (Homo sapiens, UniProt P09619).
T3 construct: purchased DiscoverX (KinomeScan service)
Description: KinomeScan Kd determination, PDGFRβ. In kind it is binding. As to conditions: for KdRTK/KdKIT, PDGFRβ: Kd PDGFRβ over Kd KIT; for Kd: KinomeScan. On the procedure:
as §5, §6, §7, §8, §9

Read-outs that look alike come from different tables or passages of the source. Where only a bound is given, the exact number is not on record here.

T3 sequence (P09619 33-1106): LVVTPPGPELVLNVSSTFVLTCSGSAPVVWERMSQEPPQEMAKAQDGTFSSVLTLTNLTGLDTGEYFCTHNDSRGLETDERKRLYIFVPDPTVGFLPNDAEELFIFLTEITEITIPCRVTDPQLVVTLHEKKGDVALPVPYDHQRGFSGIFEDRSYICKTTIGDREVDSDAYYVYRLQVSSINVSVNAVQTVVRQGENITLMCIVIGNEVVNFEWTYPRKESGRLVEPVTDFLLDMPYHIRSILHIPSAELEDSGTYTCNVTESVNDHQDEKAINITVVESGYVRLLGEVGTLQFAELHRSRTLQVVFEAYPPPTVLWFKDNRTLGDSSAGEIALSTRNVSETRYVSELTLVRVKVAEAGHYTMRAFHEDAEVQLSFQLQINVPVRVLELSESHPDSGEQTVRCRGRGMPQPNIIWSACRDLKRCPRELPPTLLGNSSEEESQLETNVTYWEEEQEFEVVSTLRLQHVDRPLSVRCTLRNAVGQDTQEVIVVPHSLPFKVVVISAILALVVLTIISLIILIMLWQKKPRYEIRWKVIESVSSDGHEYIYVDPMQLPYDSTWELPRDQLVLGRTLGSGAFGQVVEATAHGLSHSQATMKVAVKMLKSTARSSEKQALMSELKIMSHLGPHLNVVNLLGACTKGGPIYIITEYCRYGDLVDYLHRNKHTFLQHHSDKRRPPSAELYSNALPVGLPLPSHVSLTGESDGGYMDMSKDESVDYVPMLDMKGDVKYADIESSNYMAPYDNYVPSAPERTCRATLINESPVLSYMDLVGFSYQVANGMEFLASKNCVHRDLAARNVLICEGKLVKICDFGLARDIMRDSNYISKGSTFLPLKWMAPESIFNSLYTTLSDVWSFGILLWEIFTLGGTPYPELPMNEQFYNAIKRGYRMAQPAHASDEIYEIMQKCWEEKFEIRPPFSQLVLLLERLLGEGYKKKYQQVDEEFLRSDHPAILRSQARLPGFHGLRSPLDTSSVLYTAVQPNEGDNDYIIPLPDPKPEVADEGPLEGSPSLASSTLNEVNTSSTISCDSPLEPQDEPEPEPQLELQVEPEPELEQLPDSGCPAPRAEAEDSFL

The term IC50 denotes the midpoint of a concentration-inhibition curve. A word on the Kd: it is the concentration at which binding is half-saturated. In the case of `O=C(Nc1ccccc1)Nc1ccc(Nc2cc(-c3ccccc3)ncn2)cc1` [Compound 19], the 50% inhibitory concentration (IC50) with A549 cells is 3.16 ± 1.12 µM; in the assay on BxPC3 cells, 0.77 ± 0.21 µM; in the assay with A431 cells it was 2.85 ± 1.03 µM; with LoVo cells it was 7.45 ± 1.53 µM. The “Potency relative to SU (A549)” value in the assay with A549 cells (ratio between IC50 of sunitinib and IC50 of tested compound, A549) amounted to 1.97. Further, the “KdRTK/KdKIT, CSF1R” value at CSF1R was determined as 132. For the same compound, the values for the equilibrium dissociation constant (Kd) on CSF1R (read-out: Kd (nM) CSF1R), at KIT and on PDGFRβ were 2900 nM, 22 nM and 80 nM, respectively. The “KdRTK/KdKIT, KIT” value on KIT amounted to 1. Moreover, on PDGFRβ, the “KdRTK/KdKIT, PDGFRβ” value was determined as 4.

In the case of `O=C(CN1CCOCC1)Nc1cccc(-c2cc(Nc3ccc(NC(=O)Nc4ccccc4)cc3)ncn2)c1` [Compound 27], the half-inhibitory concentration (IC50) with A549 cells came to 3.11 ± 1.09 µM; with BxPC3 cells it was 0.81 ± 0.32 µM; in the assay on A431 cells, 1.96 ± 0.92 µM; with LoVo cells it was 7.76 ± 1.28 µM. The “Potency relative to SU (BxPC3)” value in the assay with BxPC3 cells (ratio between IC50 of sunitinib and IC50 of tested compound, BxPC3) came out at 6. Also, the “Potency improvement Kd19/Kd27, CSF1R” value at CSF1R (27 versus 19) is 2.6. Further, on CSF1R, the “KdRTK/KdKIT, CSF1R” value is listed as 110. Further, the dissociation constant (Kd) was greater than 1000 nM at CSF1R (bound stated, read-out: Kd against CSF1R); 1100 nM at CSF1R (read-out: Kd (nM) CSF1R); 10 nM on KIT; 70 nM on PDGFRβ. Moreover, at KIT (27 versus 19), the “Potency improvement Kd19/Kd27, KIT” value is 2.2. In addition, the “KdRTK/KdKIT, KIT” value at KIT turned out to be 1. Also, at PDGFRβ (27 versus 19), the “Potency improvement Kd19/Kd27, PDGFRβ” value came out at 1.1. At PDGFRβ, the “KdRTK/KdKIT, PDGFRβ” value was 7.
